Format in all cases: cell-based
In assay [1] the test system is M. Smegmatis (ATCC607). The assay is described as follows: In-vitro anti-bacterial activity against strain M. Smegmatis ATCC607. As to conditions: for IC90: Mycolicibacterium smegmatis, read-out: IC90 MSM ATCC607. On the procedure:
D.2. In-Vitro Method for Testing Compounds for Anti-Bacterial Activity Against Strain M. Smegmatis ATCC607. Flat-bottom, sterile 96-well plastic microtiter plates were filled with 180 μl of sterile deionized water, supplemented with 0.25% BSA. […] Serial five-fold dilutions (45 μl in 180 μl) were made directly in the microtiter plates from column 2 to 11 using a customised robot system (Zymark Corp., Hopkinton, Mass.). Pipette tips were changed after every 3 dilutions to minimize pipetting errors with high hydrophobic compounds. […] Approximately 250 CFU per well of bacteria inoculum, in a volume of 100 μl in 2.8× Mueller-Hinton broth medium, was added to the rows […]. The same volume of broth medium without inoculum was added to column 12 in row A to H. The cultures were incubated at 37° C. for 48 hours in a humidified 5% CO2 atmosphere (incubator with open air valve and continuous ventilation). At the end of incubation, two days after inoculation, the bacterial growth was quantitated fluorometrically. Therefore Alamar Blue (10×) was added to all wells in a volume of 20 μl and plates were incubated for another 2 hours at […] The fluorescence was read in a computer-controlled fluorometer (Cytofluor, Biosearch) at an excitation wavelength of 530 nm and an emission wavelength of 590 nm (gain 30).

The subject of assay [2] is Staphylococcus aureus (ATCC29213). The assay is described as follows: In-vitro anti-bacterial microtitre plate assay, IC90 determination, Staphylococcus aureus. As to conditions: for IC90: read-out: IC90 STA 29213. Here is the method: (§1) D.3. In-Vitro Method for Testing Compounds for Anti-Bacterial Activity Against Various Non-Mycobacterial Strains […] The bacteria used in this study were grown overnight in flasks containing 100 ml Mueller-Hinton Broth (Becton Dickinson-cat. no. 275730) in sterile de-ionized water, with shaking, at 37° C. Stocks (0.5 ml/tube) were stored at -70° C. until use. Bacteria titrations were performed in microtiter plates to detect the TCID50, in which the TCID50 represents the dilution that gives rise to bacterial growth in 50% of inoculated cultures. In general, an inoculum level of approximately 100 TCID50 was used for susceptibility testing. Anti Bacterial Susceptibility Testing: IC90 Determination Microtitre Plate Assay […] Depending on the bacteria type, approximately 10 to 60 CFU per well of bacteria inoculum (100 TCID50), in a volume of 100 μl in 2.8× Mueller-Hinton broth medium, was added to the rows […]. The same volume of broth medium without inoculum was added to column 12 in row A to H. The cultures were incubated at 37° C. for 24 hours under a normal atmosphere (incubator with open air valve and continuous ventilation). At the end of incubation, one day after inoculation, the bacterial growth was quantitated fluorometrically. Therefore resazurin (0.6 mg/ml) was added in a volume of 20 μl to all wells 3 hours after inoculation, and the plates were re-incubated overnight. A change in colour from blue to pink indicated the growth of bacteria. The fluorescence was read in a computer-controlled fluorometer (Cytofluor Biosearch) at an excitation wavelength of 530 nm and an emission wavelength of 590 nm. The % growth inhibition achieved by the compounds was calculated according to standard methods.

Assay [3] has as its system Streptococcus pneumoniae (ATCC6305). The assay is described as follows: In-vitro anti-bacterial microtitre plate assay, IC90 determination, Streptococcus pneumoniae. As to conditions: for IC90: read-out: IC90 SPN 6305. Here is the method: as §1
[4] abbreviates: 90% inhibitory concentration for bacterial growth, M. Smegmatis ATCC607, 48 hours, Alamar Blue fluorescence.
The mark [5] stands for this setting: 90% inhibitory concentration for bacterial growth, Staphylococcus aureus ATCC29213, 24 hours, resazurin fluorescence.
[6] abbreviates: 90% inhibitory concentration for bacterial growth, Streptococcus pneumoniae ATCC6305, 24 hours, resazurin fluorescence.

SMILES strings stand for the structures. Converted amounts (≈) assume the structure as drawn. Read-outs that look alike come from different tables or passages of the source.

The IC90 is the concentration needed for an effect of 90%. Consider `COc1nc2ccc(Br)cc2cc1C(O)(CCCN(C)C)c1cccc2ccccc12` (stereo not drawn) [Compound 1], for which the IC90 in assay [1] (setting [4]) came to 1.91 µg/mL (≈ 3.98 µM); in assay [2] (setting [5]), 7.6 µg/mL (≈ 15.9 µM); in assay [3] (setting [6]) it was 8.53 µg/mL (≈ 17.8 µM).
Turning to `COc1nc2ccc(Br)cc2cc1C(O)(CCCCN(C)C)c1cccc2ccccc12` (stereo not drawn) [Compound 2], the “IC90 MSM ATCC607” value in assay [1] (setting [4]) was 7.82 µg/mL (≈ 15.8 µM). The “IC90 STA 29213” value in assay [2] (setting [5]) is 39.20 µg/mL (≈ 79.4 µM). The “IC90 SPN 6305” value in assay [3] (setting [6]) stood at 9.85 µg/mL (≈ 20 µM).
For the compound `COc1nc2ccc(Br)cc2cc1C(O)(CCCCCN(C)C)c1cccc2ccccc12` (stereo not drawn) [Compound 3], the “IC90 MSM ATCC607” value in assay [1] (setting [4]) worked out at 11.36 µg/mL (≈ 22.4 µM). Also, the “IC90 STA 29213” value in assay [2] (setting [5]) was 8.04 µg/mL (≈ 15.8 µM). Further, the “IC90 SPN 6305” value in assay [3] (setting [6]) worked out at 10.13 µg/mL (≈ 20 µM).
Regarding `COc1nc2ccc(-c3ccccc3)cc2cc1C(O)(CCCN(C)C)c1cccc2ccccc12` (stereo not drawn) [Compound 4], the IC90 came out at 1.51 µg/mL (≈ 3.17 µM) in assay [1] (ATCC607, 48 h); 1.51 µg/mL (≈ 3.17 µM) in assay [2] (Staphylococcus aureus, ATCC29213, 24 h); 1.51 µg/mL (≈ 3.17 µM) in assay [3] (Streptococcus pneumoniae, ATCC6305, 24 h).
For the compound `COc1nc2ccc(-c3ccccc3)cc2cc1C(O)(CCCCN(C)C)c1cccc2ccccc12` (stereo not drawn) [Compound 5], in assay [1] (setting [4]), the “IC90 MSM ATCC607” value came out at 7.78 µg/mL (≈ 15.9 µM). Also, in assay [2] (setting [5]), the “IC90 STA 29213” value is 38.97 µg/mL (≈ 79.4 µM). In addition, in assay [3] (setting [6]), the “IC90 SPN 6305” value is 49.07 µg/mL (≈ 100 µM).
On to `COc1nc2ccc(-c3ccccc3)cc2cc1C(O)(CCCCCN(C)C)c1cccc2ccccc12` (stereo not drawn) [Compound 6], for which the “IC90 MSM ATCC607” value in assay [1] (setting [4]) turned out to be 6.35 µg/mL (≈ 12.6 µM). Further, the “IC90 STA 29213” value in assay [2] (setting [5]) was 8.00 µg/mL (≈ 15.9 µM). Further, the “IC90 SPN 6305” value in assay [3] (setting [6]) was 10.07 µg/mL (≈ 20 µM).
For `COc1ccccc1-c1ccc2nc(OC)c(C(O)(CCCN(C)C)c3cccc4ccccc34)cc2c1` (stereo not drawn) [Compound 7], in that order: 1.60 µg/mL (≈ 3.16 µM), 1.60 µg/mL (≈ 3.16 µM) and 1.8 µg/mL (≈ 3.55 µM).
For the compound `COc1ccccc1-c1ccc2nc(OC)c(C(O)(CCCCN(C)C)c3cccc4ccccc34)cc2c1` (stereo not drawn) [Compound 8], the “IC90 MSM ATCC607” value in assay [1] (setting [4]) stood at 6.55 µg/mL (≈ 12.6 µM). Also, in assay [2] (setting [5]), the “IC90 STA 29213” value turned out to be 8.25 µg/mL (≈ 15.8 µM). The “IC90 SPN 6305” value in assay [3] (setting [6]) turned out to be 10.39 µg/mL (≈ 20 µM).
`COc1ccccc1-c1ccc2nc(OC)c(C(O)(CCCCCN(C)C)c3cccc4ccccc34)cc2c1` (stereo not drawn) [Compound 9]: the “IC90 MSM ATCC607” value in assay [1] (setting [4]) is 8.47 µg/mL (≈ 15.8 µM). Besides, the “IC90 STA 29213” value in assay [2] (setting [5]) was 8.47 µg/mL (≈ 15.8 µM). Also, the “IC90 SPN 6305” value in assay [3] (setting [6]) amounted to 8.47 µg/mL (≈ 15.8 µM).
For `COc1nc2ccc(-c3ccoc3)cc2cc1C(O)(CCCN(C)C)c1cccc2ccccc12` (stereo not drawn) [Compound 10], the “IC90 MSM ATCC607” value in assay [1] (setting [4]) is 1.48 µg/mL (≈ 3.17 µM). Besides, in assay [2] (setting [5]), the “IC90 STA 29213” value worked out at 1.66 µg/mL (≈ 3.56 µM). Moreover, the “IC90 SPN 6305” value in assay [3] (setting [6]) is 3.30 µg/mL (≈ 7.07 µM).
As for `COc1nc2ccc(-c3ccoc3)cc2cc1C(O)(CCCCN(C)C)c1cccc2ccccc12` (stereo not drawn) [Compound 11], the “IC90 MSM ATCC607” value in assay [1] (setting [4]) amounted to 7.62 µg/mL (≈ 15.9 µM). Further, the “IC90 STA 29213” value in assay [2] (setting [5]) is 7.62 µg/mL (≈ 15.9 µM). The “IC90 SPN 6305” value in assay [3] (setting [6]) is 9.59 µg/mL (≈ 20 µM).
As to `COc1nc2ccc(-c3ccoc3)cc2cc1C(O)(CCCCCN(C)C)c1cccc2ccccc12` (stereo not drawn) [Compound 12], the “IC90 MSM ATCC607” value in assay [1] (setting [4]) worked out at 1.56 µg/mL (≈ 3.15 µM). The “IC90 STA 29213” value in assay [2] (setting [5]) was 1.56 µg/mL (≈ 3.15 µM). In addition, the “IC90 SPN 6305” value in assay [3] (setting [6]) came out at 1.76 µg/mL (≈ 3.56 µM).
For the compound `COc1nc2ccc(-c3cccs3)cc2cc1C(O)(CCCN(C)C)c1cccc2ccccc12` (stereo not drawn) [Compound 13], the “IC90 MSM ATCC607” value in assay [1] (setting [4]) came out at 1.53 µg/mL (≈ 3.17 µM). Further, in assay [2] (setting [5]), the “IC90 STA 29213” value stood at 1.53 µg/mL (≈ 3.17 µM). Further, in assay [3] (setting [6]), the “IC90 SPN 6305” value amounted to 1.71 µg/mL (≈ 3.54 µM).
As to `COc1nc2ccc(-c3cccs3)cc2cc1C(O)(CCCCN(C)C)c1cccc2ccccc12` (stereo not drawn) [Compound 14], the “IC90 MSM ATCC607” value in assay [1] (setting [4]) came out at 15.71 µg/mL (≈ 31.6 µM). The “IC90 STA 29213” value in assay [2] (setting [5]) worked out at 39.45 µg/mL (≈ 79.4 µM). In addition, in assay [3] (setting [6]), the “IC90 SPN 6305” value was found to be 49.67 µg/mL (≈ 100 µM).
`COc1nc2ccc(-c3cccs3)cc2cc1C(O)(CCCCCN(C)C)c1cccc2ccccc12` (stereo not drawn) [Compound 15]: in assay [1] (setting [4]), the “IC90 MSM ATCC607” value amounted to 45.52 µg/mL (≈ 89.1 µM). In assay [2] (setting [5]), the “IC90 STA 29213” value is 51.07 µg/mL (≈ 100 µM). Besides, the “IC90 SPN 6305” value in assay [3] (setting [6]) amounted to 51.07 µg/mL (≈ 100 µM).
Take `COc1nc2ccc(-c3cccnc3)cc2cc1C(O)(CCCN(C)C)c1cccc2ccccc12` (stereo not drawn) [Compound 16]: in assay [1] (setting [4]), the “IC90 MSM ATCC607” value was determined as 1.51 µg/mL (≈ 3.16 µM). In addition, the “IC90 STA 29213” value in assay [2] (setting [5]) came out at 7.57 µg/mL (≈ 15.8 µM). For the same compound, the “IC90 SPN 6305” value in assay [3] (setting [6]) came to 7.57 µg/mL (≈ 15.8 µM).
`COc1nc2ccc(-c3cccnc3)cc2cc1C(O)(CCCCN(C)C)c1cccc2ccccc12` (stereo not drawn) [Compound 17]: the “IC90 MSM ATCC607” value in assay [1] (setting [4]) worked out at 49.16 µg/mL (≈ 100 µM). The “IC90 STA 29213” value in assay [2] (setting [5]) came out at 49.16 µg/mL (≈ 100 µM). Further, the “IC90 SPN 6305” value in assay [3] (setting [6]) was determined as 49.16 µg/mL (≈ 100 µM).
Consider `COc1nc2ccc(-c3cccnc3)cc2cc1C(O)(CCCCCN(C)C)c1cccc2ccccc12` (stereo not drawn) [Compound 18], for which the “IC90 MSM ATCC607” value in assay [1] (setting [4]) was determined as 8.01 µg/mL (≈ 15.8 µM). In assay [2] (setting [5]), the “IC90 STA 29213” value is 8.01 µg/mL (≈ 15.8 µM). Further, in assay [3] (setting [6]), the “IC90 SPN 6305” value was 8.99 µg/mL (≈ 17.8 µM).
Take `COc1nc2ccc(-c3cc4ccccc4o3)cc2cc1C(O)(CCCN(C)C)c1cccc2ccccc12` (stereo not drawn) [Compound 19]: the “IC90 MSM ATCC607” value in assay [1] (setting [4]) is 3.26 µg/mL (≈ 6.31 µM). Further, in assay [2] (setting [5]), the “IC90 STA 29213” value came out at 3.66 µg/mL (≈ 7.08 µM). Moreover, the “IC90 SPN 6305” value in assay [3] (setting [6]) is 8.19 µg/mL (≈ 15.9 µM).
With `COc1nc2ccc(-c3cc4ccccc4o3)cc2cc1C(O)(CCCCCN(C)C)c1cccc2ccccc12` (stereo not drawn) [Compound 20], the “IC90 MSM ATCC607” value in assay [1] (setting [4]) was 1.72 µg/mL (≈ 3.16 µM). In addition, in assay [2] (setting [5]), the “IC90 STA 29213” value turned out to be 1.72 µg/mL (≈ 3.16 µM). In assay [3] (setting [6]), the “IC90 SPN 6305” value was determined as 1.72 µg/mL (≈ 3.16 µM).

The record behind these values is US20110166179A1, “ANTIBACTERIAL QUINOLINE DERIVATIVES” (priority 2007, published 2011).
